In patent US9242996B2 (Novartis AG, priority 2013, dated 2016):

Target: activated ERK2 (Homo sapiens (Human), UniProt P28482)
Assay: Activated ERK2 (20 pM) Kinase Assay (AlphaScreen, ERKtide phosphorylation)
Assay type: biochemical
Conditions: 0.02 nM ERK2, 400 nM ERKtide peptide, 35 μM ATP, 30 min preincubation
Method in brief: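 Activated human ERK2 (0.02 nM) preincubated 30 min with compounds, then 400 nM ERKtide and 35 μM ATP added for 4 h at ambient temperature in HEPES pH 7.5, MgCl2, DTT, Tween-20, BSA. EDTA stop; phospho-peptide read by AlphaScreen after overnight dark incubation; four-parameter IC50.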

Chain of activated ERK2 (P28482 whole entry): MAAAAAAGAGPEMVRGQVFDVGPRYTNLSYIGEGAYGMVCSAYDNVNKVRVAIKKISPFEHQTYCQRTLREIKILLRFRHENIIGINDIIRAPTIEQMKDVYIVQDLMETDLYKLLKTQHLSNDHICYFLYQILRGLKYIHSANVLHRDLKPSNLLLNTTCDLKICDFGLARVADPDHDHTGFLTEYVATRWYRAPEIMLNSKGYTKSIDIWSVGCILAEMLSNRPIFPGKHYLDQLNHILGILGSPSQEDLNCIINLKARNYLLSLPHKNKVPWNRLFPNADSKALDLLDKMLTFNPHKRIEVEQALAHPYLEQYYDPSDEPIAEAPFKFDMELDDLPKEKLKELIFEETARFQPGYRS

| IC50 [nM] | SMILES |
| --- | --- |
| 0.076 | CNC[C@@H](NC(=O)c1ccc(-c2nc([C@@H]3CC[C@@H](O)[C@H](F)C3)cnc2N)cc1F)c1cccc(Br)c1 [Example 359, 4-(3-amino-6-((1R,3R,4R)-3-fluoro-4-hydroxy-cyclohexyl)pyrazin-2-yl)-N-((S)-1-(3-bromophenyl)-2-(methylamino)ethyl)-2-fluorobenzamide] |
| 0.00665 | CNC[C@@H](NC(=O)c1ccc(-c2nc([C@H]3CC[C@H](O)CC3)cnc2N)cc1F)c1cc(F)cc(I)c1 [Example 360, 4-(3-amino-6-((1r,4S)-4-hydroxy-cyclohexyl)pyrazin-2-yl)-2-fluoro-N-((S)-1-(3-fluoro-5-iodophenyl)-2-(methylamino)ethyl)benzamide] |
| 0.104 | CNC[C@@H](NC(=O)c1ccc(-c2nc([C@@H]3CC[C@@H](O)[C@H](F)C3)cnc2N)cc1F)c1cc(F)cc(Br)c1 [Example 361, 4-(3-amino-6-((1R,3R,4R)-3-fluoro-4-hydroxy-cyclohexyl)pyrazin-2-yl)-N-((S)-1-(3-bromo-5-fluorophenyl)-2-(methylamino)ethyl)-2-fluorobenzamide] |
| 0.0208 | CNC[C@@H](NC(=O)c1ccc(-c2nc(C3CCOCC3)cnc2N)cc1F)c1cc(F)cc(Br)c1 [Example 365, (S)-4-(3-amino-6-(tetrahydro-2H-pyran-4-yl)pyrazin-2-yl)-N-(1-(3-bromo-5-fluorophenyl)-2-(methylamino)ethyl)-2-fluorobenzamide] |
| 0.03 | CCNC[C@@H](NC(=O)c1ccc(-c2nc(C3CCOCC3)cnc2N)cc1F)c1cc(F)cc(Br)c1 [Example 371, (S)-4-(3-amino-6-(tetrahydro-2H-pyran-4-yl)pyrazin-2-yl)-N-(1-(3-bromo-5-fluorophenyl)-2-(ethylamino)ethyl)-2-fluorobenzamide] |
| 0.00837 | NC[C@@H](NC(=O)c1ccc(-c2nc([C@H]3CC[C@H](O)CC3)cnc2N)cc1F)c1cc(F)cc(I)c1 [Example 373, N-((S)-2-amino-1-(3-fluoro-5-iodophenyl)ethyl)-4-(3-amino-6-((1r,4S)-4-hydroxy-cyclohexyl)pyrazin-2-yl)-2-fluorobenzamide] |
| 0.0205 | CNC[C@@H](NC(=O)c1ccc(-c2nc([C@H]3CC[C@H](OC)CC3)cnc2N)cc1F)c1cc(F)cc(Br)c1 [Example 374, 4-(3-amino-6-((1r,4S)-4-methoxy-cyclohexyl)pyrazin-2-yl)-N-((S)-1-(3-bromo-5-fluorophenyl)-2-(methylamino)ethyl)-2-fluorobenzamide] |
| 0.0401 | CNC[C@@H](NC(=O)c1ccc(-c2nc([C@H]3CC[C@H](OC)CC3)cnc2N)cc1F)c1cccc(Br)c1 [Example 375, 4-(3-amino-6-((1r,4S)-4-methoxy-cyclohexyl)pyrazin-2-yl)-N-((S)-1-(3-bromophenyl)-2-(methylamino)ethyl)-2-fluorobenzamide] |
| 0.0183 | CNC[C@@H](NC(=O)c1ccc(-c2nc([C@H]3CC[C@H](O)CC3)cnc2N)cc1F)c1cc(F)cc(Br)c1 [Example 376, 4-(3-amino-6-((1r,4S)-4-hydroxy-cyclohexyl)pyrazin-2-yl)-N-((S)-1-(3-bromo-5-fluorophenyl)-2-(methylamino)ethyl)-2-fluorobenzamide] |
| 0.07 | CNC[C@@H](NC(=O)c1ccc(-c2nc([C@H]3CC[C@H](OC)CC3)cnc2N)cc1F)c1cccc(Cl)c1 [Example 377, 4-(3-amino-6-((1r,4S)-4-methoxy-cyclohexyl)pyrazin-2-yl)-N-((S)-1-(3-chlorophenyl)-2-(methylamino)ethyl)-2-fluorobenzamide] |
| 0.0248 | CCNC[C@@H](NC(=O)c1ccc(-c2nc(C3CCOCC3)cnc2N)cc1F)c1cccc(Br)c1 [Example 378, (S)-4-(3-amino-6-(tetrahydro-2H-pyran-4-yl)pyrazin-2-yl)-N-(1-(3-bromophenyl)-2-(ethylamino)ethyl)-2-fluorobenzamide] |
| 0.0617 | CCNC[C@@H](NC(=O)c1ccc(-c2nc([C@H]3CC[C@H](O)CC3)cnc2N)cc1F)c1cccc(Br)c1 [Example 379, 4-(3-amino-6-((1r,4S)-4-hydroxy-cyclohexyl)pyrazin-2-yl)-N-((S)-1-(3-bromophenyl)-2-(ethylamino)ethyl)-2-fluorobenzamide] |
| 0.0097 | CNC[C@@H](NC(=O)c1ccc(-c2nc(C3CCOCC3)cnc2N)cc1F)c1cccc(Br)c1 [Example 380, (S)-4-(3-amino-6-(tetrahydro-2H-pyran-4-yl)pyrazin-2-yl)-N-(1-(3-bromophenyl)-2-(methylamino)ethyl)-2-fluorobenzamide] |
| 0.0209 | CNC[C@@H](NC(=O)c1ccc(-c2nc([C@H]3CC[C@H](O)CC3)cnc2N)cc1F)c1cccc(Br)c1 [Example 381, 4-(3-amino-6-((1r,4S)-4-hydroxy-cyclohexyl)pyrazin-2-yl)-N-((S)-1-(3-bromophenyl)-2-(methylamino)ethyl)-2-fluorobenzamide] |
| 0.0107 | CO[C@H]1CC[C@H](c2cnc(N)c(-c3ccc(C(=O)N[C@H](CN)c4cc(F)cc(I)c4)c(F)c3)n2)CC1 [Example 382, N-((S)-2-amino-1-(3-fluoro-5-iodophenyl)ethyl)-4-(3-amino-6-((1r,4S)-4-methoxy-cyclohexyl)pyrazin-2-yl)-2-fluorobenzamide] |
| 0.0689 | CO[C@H]1CC[C@H](c2cnc(N)c(-c3ccc(C(=O)N[C@H](CN)c4cccc(Br)c4)c(F)c3)n2)CC1 [Example 383, N-((S)-2-amino-1-(3-bromophenyl)ethyl)-4-(3-amino-6-((1r,4S)-4-methoxy-cyclohexyl)pyrazin-2-yl)-2-fluorobenzamide] |
| 0.01 | CSc1cccc([C@@H](CO)NC(=O)c2ccc(-c3nc(C4CCOCC4)cnc3N)cc2F)c1 [Example 387, (S)-4-(3-amino-6-(tetrahydro-2H-pyran-4-yl)pyrazin-2-yl)-2-fluoro-N-(2-hydroxy-1-(3-(methylthio)phenyl)ethyl)benzamide] |
| 0.0269 | CSc1cccc([C@@H](CO)NC(=O)c2ccc(-c3nc([C@H]4CC[C@H](O)CC4)cnc3N)cc2F)c1 [Example 388, 4-(3-amino-6-((1r,4S)-4-hydroxy-cyclohexyl)pyrazin-2-yl)-2-fluoro-N-((S)-2-hydroxy-1-(3-(methylthio)phenyl)ethyl)benzamide] |
| 0.0242 | Nc1ncc(C2CCOCC2)nc1-c1ccc(C(=O)N[C@H](CO)c2cc(F)cc(CCl)c2)c(F)c1 [Example 390, (S)-4-(3-amino-6-(tetrahydro-2H-pyran-4-yl)pyrazin-2-yl)-N-(1-(3-(chloromethyl)-5-fluorophenyl)-2-hydroxyethyl)-2-fluorobenzamide] |
| 0.0153 | CSc1cc(F)cc([C@@H](CO)NC(=O)c2ccc(-c3cc(-c4cn(C)nc4C)cnc3N)cc2F)c1 [Example 394, (S)-4-(2-amino-5-(1,3-dimethyl-1H-pyrazol-4-yl)pyridin-3-yl)-2-fluoro-N-(1-(3-fluoro-5-(methylthio)phenyl)-2-hydroxyethyl) benzamide] |
| 0.00827 | CSc1cc(F)cc([C@@H](CO)NC(=O)c2ccc(-c3nc(C4CCOCC4)cnc3N)cc2F)c1 [Example 395, (S)-4-(3-amino-6-(tetrahydro-2H-pyran-4-yl)pyrazin-2-yl)-2-fluoro-N-(1-(3-fluoro-5-(methylthio)phenyl)-2-hydroxyethyl) benzamide] |
